Reference: patent US20060142348A1, “Aryl sulfonamide peri-substituted bicyclics for occlusive artery disease” (deCODE Chemistry, Inc., priority 2004, published 2006)
pIC50: −log10 of the molar value.

Target: T1, prostanoid EP3 receptors (Homo sapiens, UniProt P43115)
T1 sequence (P43115 1-365 isoform P43115-3): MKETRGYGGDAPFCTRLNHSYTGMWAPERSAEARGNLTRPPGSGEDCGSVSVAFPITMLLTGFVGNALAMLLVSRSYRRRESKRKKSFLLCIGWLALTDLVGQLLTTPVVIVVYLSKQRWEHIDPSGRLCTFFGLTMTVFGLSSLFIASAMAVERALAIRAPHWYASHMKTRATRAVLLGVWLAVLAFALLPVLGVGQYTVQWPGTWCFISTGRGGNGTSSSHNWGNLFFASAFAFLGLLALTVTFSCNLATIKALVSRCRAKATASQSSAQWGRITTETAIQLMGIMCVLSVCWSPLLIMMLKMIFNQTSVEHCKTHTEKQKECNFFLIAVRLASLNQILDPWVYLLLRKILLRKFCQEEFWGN
Test: binding on prostanoid EP3 receptors (method of Abramovitz et al.)
Conditions: read-out: Activity (EP3 receptor binding IC50)
Protocol: The compounds of the invention may be assayed for their binding on prostanoid EP3 receptors according to the method of Abramovitz et al. [Bioch. Biophys. Actas 1473, 285-293 (2000)]. All of the examples in the tables below have been synthesized, characterized and tested for EP3 receptor binding.
The compounds of the invention were assayed for their binding on prostanoid EP3 receptors according to the method of Abramovitz et al. [Bioch. Biophys. Acta, 1473, 285-293 (2000)]. […] Compounds with IC50<1 μM are shown as +++; compounds with IC50<1-10 μM are shown as ++; and compounds with IC50>10 μM are shown as +.

Row | SMILES | pIC50
1 | Cc1cn(Cc2ccc(Cl)cc2Cl)c2c(-c3nnc(NS(C)(=O)=O)o3)cc(F)cc12 [Compound B11, N-{5-[1-(2,4-Dichloro-benzyl)-5-fluoro-3-methyl-1H-indol-7-yl]-[1,3,4]oxadiazol-2-yl}-methanesulfonamide] | 5.00 to 6.00
2 | Cc1cn(Cc2ccc(Cl)cc2Cl)c2c(-c3nnc(NC(=O)c4ccc(F)cc4F)o3)cc(F)cc12 [Compound B27, N-{5-[1-(2,4-Dichloro-benzyl)-5-fluoro-3-methyl-1H-indol-7-yl]-[1,3,4]oxadiazol-2-yl}-2,4-difluoro-benzamide] | 5.00 to 6.00
3 | CC(=O)Nc1ccc(-c2cccc3c2c(Cc2ccc4ccccc4c2)cn3C)cc1 [Compound B17, N-[4-(1-Methyl-3-naphthalen-2-ylmethyl-1H-indol-4-yl)-phenyl]-acetamide] | 5.00 to 6.00
4 | Cc1cn(Cc2ccc(Cl)cc2Cl)c2c(-c3nnc(NC(=O)c4ccc(F)c(F)c4)o3)cc(F)cc12 [Compound B26, N-{5-[1-(2,4-Dichloro-benzyl)-5-fluoro-3-methyl-1H-indol-7-yl]-[1,3,4]oxadiazol-2-yl}-3,4-difluoro-benzamide] | > 6.00
5 | Cc1cn(Cc2ccc(Cl)cc2Cl)c2c(-c3nc(NS(=O)(=O)c4cc(Cl)c(Cl)s4)no3)cc(F)cc12 [Compound B42, 5-Dichloro-thiophene-2-sulfonic acid {5-[1-(2,4-dichloro-benzyl)-5-fluoro-3-methyl-1H-indol-7-yl]-[1,2,4]oxadiazol-3-yl}-amide] | > 6.00
6 | Cc1cn(Cc2ccc(Cl)cc2Cl)c2c(-c3nnc(NC(=O)c4ccco4)o3)cc(F)cc12 [Compound B30, Furan-2-carboxylic acid {5-[1-(2,4-dichloro-benzyl)-5-fluoro-3-methyl-1H-indol-7-yl]-[1,3,4]oxadiazol-2-yl}-amide] | > 6.00
7 | Cc1cn(Cc2ccc(Cl)cc2Cl)c2c(-c3cc(NS(=O)(=O)c4cc(F)c(F)cc4F)no3)cc(F)cc12 [Compound B36, N-{5-[1-(2,4-Dichloro-benzyl)-5-fluoro-3-methyl-1H-indol-7-yl]-isoxazol-3-yl}-2,4,5-trifluoro-benzenesulfonamide] | > 6.00
8 | Cc1cn(Cc2ccc(Cl)cc2Cl)c2c(-c3cc(NS(=O)(=O)c4cc(Cl)c(Cl)s4)no3)cc(F)cc12 [Compound B34, 4,5-Dichloro-thiophene-2-sulfonic acid {5-[1-(2,4-dichloro-benzyl)-5-fluoro-3-methyl-1H-indol-7-yl]-isoxazol-3-yl}-amide] | > 6.00
9 | Cn1cc(-c2csc(NS(=O)(=O)c3cc(Cl)c(Cl)s3)n2)c2c(Oc3ccc4ccccc4c3)cccc21 [Compound B43, 4,5-Dichloro-thiophene-2-sulfonic acid {4-[1-methyl-4-(naphthalen-2-yloxy)-1H-indol-3-yl]-thiazol-2-yl}-amide] | 5.00 to 6.00
10 | Cn1cc(Cc2ccc3ccccc3c2)c2c(-c3ccc(NS(=O)(=O)c4cc(Cl)c(Cl)s4)cc3)cccc21 [Compound B04, 4,5-Dichloro-thiophene-2-sulfonic acid[4-(1-methyl-3-naphthalen-2-ylmethyl-1H-indol-4-yl)-phenyl]-amide] | 5.00 to 6.00
11 | Cc1cn(Cc2ccc(F)c(F)c2)c2c(-c3cc(NS(=O)(=O)c4cc(F)c(F)cc4F)no3)cc(F)cc12 [Compound B33, N-{5-[1-(3,4-Difluoro-benzyl)-5-fluoro-3-methyl-1H-indol-7-yl]-isoxazol-3-yl}-2,4,5-trifluoro-benzenesulfonamide] | > 6.00
12 | Cc1cn(Cc2ccc(Cl)cc2Cl)c2c(-c3cc(NS(=O)(=O)c4ccc(Cl)c(Cl)c4)no3)cc(F)cc12 [Compound B37, 3,4-Dichloro-N-{5-[1-(2,4-dichloro-benzyl)-5-fluoro-3-methyl-1H-indol-7-yl]-isoxazol-3-yl}-benzenesulfonamide] | > 6.00
13 | Cc1cn(Cc2ccc(Cl)cc2Cl)c2c(-c3nnc(NC(=O)c4ccc5c(c4)OC(F)(F)O5)o3)cc(F)cc12 [Compound B29, 2,2-Difluoro-benzo[1,3]dioxole-5-carboxylic acid {5-[1-(2,4-dichloro-benzyl)-5-fluoro-3-methyl-1H-indol-7-yl]-[1,3,4]oxadiazol-2-yl}-amide] | > 6.00
14 | Cn1cc(-c2csc(NS(=O)(=O)c3ccc(F)c(F)c3)n2)c2c(Oc3ccc4ccccc4c3)cccc21 [Compound B44, 3,4-Difluoro-N-{4-[1-methyl-4-(naphthalen-2-yloxy)-1H-indol-3-yl]-thiazol-2-yl}-benzenesulfonamide] | 5.00 to 6.00
15 | Cn1cc(Cc2ccc3ccccc3c2)c2c(-c3cccc(NS(=O)(=O)c4cc(Cl)c(Cl)s4)c3)cccc21 [Compound B03, 4,5-Dichloro-thiophene-2-sulfonic acid[3-(1-methyl-3-naphthalen-2-ylmethyl-1H-indol-4-yl)-phenyl]-amide] | 5.00 to 6.00
16 | Cc1cn(Cc2ccc(Cl)cc2Cl)c2c(-c3nnc(NC(=O)c4ccc(F)cc4)o3)cc(F)cc12 [Compound B23, N-{5-[1-(2,4-Dichloro-benzyl)-5-fluoro-3-methyl-1H-indol-7-yl]-[1,3,4]oxadiazol-2-yl}-4-fluoro-benzamide] | 5.00 to 6.00
17 | Cc1cn(Cc2ccc(Cl)cc2Cl)c2c(-c3cc(NS(=O)(=O)c4ccc(F)c(F)c4)no3)cc(F)cc12 [Compound B35, N-{5-[1-(2,4-Dichloro-benzyl)-5-fluoro-3-methyl-1H-indol-7-yl]-isoxazo 1-3-yl}-3,4-difluoro-benzenesulfonamide] | > 6.00
18 | Cc1cn(Cc2ccc(Cl)cc2Cl)c2c(-c3nnc(NS(=O)(=O)c4cc(F)c(F)cc4F)o3)cc(F)cc12 [Compound B12, N-{5-[1-(2,4-Dichloro-benzyl)-5-fluoro-3-methyl-1H-indol-7-yl]-[1,3,4]oxadiazol-2-yl}-2,4,5-trifluoro-benzenesulfonamide] | > 6.00
19 | Cn1cc(Cc2ccc3ccccc3c2)c2c(-c3ccc(NS(C)(=O)=O)cc3)cccc21 [Compound B05, N-[4-(1-Methyl-3-naphthalen-2-ylmethyl-1H-indol-4-yl)-phenyl]-methanesulfonamide] | 5.00 to 6.00
20 | Cc1cn(Cc2ccc(F)c(F)c2)c2c(-c3cc(NS(=O)(=O)c4ccc(F)c(F)c4)no3)cc(F)cc12 [Compound B32, N-{5-[1-(3,4-Difluoro-benzyl)-5-fluoro-3-methyl-1H-indol-7-yl]-isoxazol-3-yl}-3,4-difluoro-benzenesulfonamide] | > 6.00
21 | Cn1cc(Cc2ccc3ccccc3c2)c2c(-c3ccc(NC(=O)C(F)(F)F)cc3)cccc21 [Compound B18, 2,2,2-Trifluoro-N-[4-(1-methyl-3-naphthalen-2-ylmethyl-1H-indol-4-yl)-phenyl]-acetamide] | > 6.00
22 | Cc1cn(Cc2ccc(Cl)cc2Cl)c2c(-c3nnc(NS(=O)(=O)c4ccc(Cl)c(Cl)c4)o3)cc(F)cc12 [Compound B20, 3,4-Dichloro-N-{5-[1-(2,4-dichloro-benzyl)-5-fluoro-3-methyl-1H-indol-7-yl]-[1,3,4]oxadiazol-2-yl}-benzenesulfonamide] | > 6.00
23 | Cn1cc(Cc2ccc3ccccc3c2)c2c(-c3cc(N)nn3S(=O)(=O)c3cc(Cl)c(Cl)s3)cccc21 [Compound B02, 1-(4,5-Dichloro-thiophene-2-sulfonyl)-5-(1-methyl-3-naphthalen-2-ylmethyl-1H-indol-4-yl)-1H-pyrazol-3-ylamine] | 5.00 to 6.00
24 | Cc1cn(Cc2ccc(F)c(F)c2)c2c(-c3cc(NS(=O)(=O)c4cc(Cl)c(Cl)s4)n(C)n3)cc(F)cc12 [Compound B15, 4,5-Dichloro-thiophene-2-sulfonic acid {5-[1-(3,4-difluoro-benzyl)-5-fluoro-3-methyl-1H-indol-7-yl]-2-methyl-2H-pyrazol-3-yl}-amide] | 5.00 to 6.00
25 | Cc1cn(Cc2ccc(Cl)cc2Cl)c2c(-c3ccc(NS(C)(=O)=O)cc3)cc(F)cc12 [Compound B09, N-{4-[1-(2,4-Dichloro-benzyl)-5-fluoro-3-methyl-1H-indol-7-yl]-phenyl}-methanesulfonamide] | < 5.00
26 | Cc1cn(Cc2ccc(F)c(F)c2)c2c(-c3cc(NS(C)(=O)=O)n(C)n3)cc(F)cc12 [Compound B14, N-{5-[1-(3,4-Difluoro-benzyl)-5-fluoro-3-methyl-1H-indol-7-yl]-2-methyl-2H-pyrazol-3-yl}-methanesulfonamide] | 5.00 to 6.00
27 | Cc1cn(Cc2ccc(F)c(F)c2)c2c(-c3cc(NS(C)(=O)=O)no3)cc(F)cc12 [Compound B16, N-{5-[1-(3,4-Difluoro-benzyl)-5-fluoro-3-methyl-1H-indol-7-yl]-isoxazol-3-yl}-methanesulfonamide] | < 5.00
28 | COc1cccc(CN2C(=O)CC3(C)CCCC(c4csc(NS(=O)(=O)c5ccc(F)c(F)c5)n4)=C23)c1 (centres unmarked) [Compound B47, 3,4-Difluoro-N-{4-[1-(3-methoxy-benzyl)-3a-methyl-2-oxo-2,3,3a,4,5,6-hexahydro-1H-indol-7-yl]-thiazol-2-yl}-benzenesulfonamide] | > 6.00
29 | Cc1cn(Cc2ccc(Cl)cc2Cl)c2c(-c3nnc(NC(=O)C(F)(F)F)o3)cc(F)cc12 [Compound B10, N-{5-[1-(2,4-Dichloro-benzyl)-5-fluoro-3-methyl-1H-indol-7-yl]-[1,3,4]oxadiazol-2-yl}-2,2,2-trifluoro-acetamide] | 5.00 to 6.00
